Columns and labels:
[1] = tested on: mice; test: Antinociceptive activity, acetic acid writhing assay (modified Siegmund et al.); format: in vivo
Method: The antinociceptive activity of compound 1 was tested in vivo in mice using the following method:-
A modification of the writhing assay of Siegmund et al (Proc. Soc. exp. Biol. Med., 1957, 95: 727-731) was used. Compound 1 dissolved in saline, or saline alone, was administered intracerebroventricularly (i.c.v.) to groups of 5 mice at the doses shown below.-1 hour or 2 hours later, the mice were injected i.p. with the nonciceptive stimulus, i.e. 0.6% (v/v) aqueous acetic acid. […] An antinociceptive compound will reduce the number of writhes and this may be expressed as a percentage inhibition: [formula]

[2] = molecular target: T1, enkephalinase Al (Rattus norvegicus, UniProt P07861); test: Enkephalinase-inhibiting activity, method A (purified enkephalinase A1, 3H-leucine enkephalin hydrolysis to 3H-TGG, TLC separation); format: biochemical, Rats; details: leucine enkephalin 5 x 10^-5M, 30°C, IC50 determined graphically, read-out: Approx IC50
T1 construct: the solubilised enzymes contained in the supernatant separated by DEAE- cellulose column chromatography; Enkephalinase Al was further purified by Sephacryl S.300 chromatography; from tissue; host or cells: rat striatum (Triton X-100 solubilised membrane pellet, DEAE-cellulose and Sephacryl S.300 chromatography)
T1 sequence (P07861 1-750): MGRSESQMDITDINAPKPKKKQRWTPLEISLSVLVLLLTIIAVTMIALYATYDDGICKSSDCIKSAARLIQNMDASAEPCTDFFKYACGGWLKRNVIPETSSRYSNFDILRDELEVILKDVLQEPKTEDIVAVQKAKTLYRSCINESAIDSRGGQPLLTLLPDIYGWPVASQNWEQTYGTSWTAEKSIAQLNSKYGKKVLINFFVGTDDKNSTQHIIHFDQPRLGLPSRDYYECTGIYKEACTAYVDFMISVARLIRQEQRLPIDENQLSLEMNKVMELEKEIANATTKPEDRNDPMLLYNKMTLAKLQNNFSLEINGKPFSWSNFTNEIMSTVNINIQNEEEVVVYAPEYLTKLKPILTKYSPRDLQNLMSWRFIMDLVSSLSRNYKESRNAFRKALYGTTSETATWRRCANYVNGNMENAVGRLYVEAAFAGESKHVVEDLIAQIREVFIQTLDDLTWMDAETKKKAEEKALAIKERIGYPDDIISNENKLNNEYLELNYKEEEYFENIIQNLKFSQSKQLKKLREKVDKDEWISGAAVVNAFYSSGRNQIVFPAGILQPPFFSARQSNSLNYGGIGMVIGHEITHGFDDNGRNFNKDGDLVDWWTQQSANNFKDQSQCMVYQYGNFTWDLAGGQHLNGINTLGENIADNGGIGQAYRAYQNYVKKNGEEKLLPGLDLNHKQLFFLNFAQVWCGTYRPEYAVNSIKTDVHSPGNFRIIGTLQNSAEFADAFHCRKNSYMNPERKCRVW

[3] = molecular target: T2, enkephalinase (Rattus norvegicus, UniProt P07861); test: Enkephalinase-inhibiting activity, method B (striatal membrane homogenate, 3H-leucine enkephalin hydrolysis to 3H-TGG); format: biochemical, rats; details: method B (figures marked with an asterisk), 3H-leucine enkephalin 3 x 10^-8M, 22°C, only approximate due to catabolism of 3H-TGG by aminopeptidase(s), read-out: Approx IC50
T2 construct: from tissue; host or cells: rat striatum, crude washed membrane pellet (47,000 g)
T2 sequence (P07861 1-750): T1 sequence (P07861 1-750)
Method: B) The following method is-a modification of the method of Malfroy et al; Nature Vol..276, 30 November 1978 pages 523 to 526. Three rats were killed by decapitation and the striata dissected out on ice. The pooled tissues were homogenised in ice-cold Tris/hydrochloric acid buffer (50 mM, pH 7.60, 10.0 ml) and centrifuged (1000 g, 10 mins). The resulting supernatant was recentrifuged (47,000 g, 20 mins) and the second supernatant discarded. The pellet was washed twice and finally resuspended in buffer as before (9.6 ml) and aliquots (1.9 ml) of this suspension incubated at 22°C. […] At the completion of incubation N hydrochloric acid (50 μl) was added, the mixture heated in a boiling water bath for 15 mins and precipitated material then removed by centrifugation (1500 g, 10 mins). Separation of • (a) unchanged ^3H-leucine enkephalin, • ([…]-OH (^3H-TGG), generated from (a) by enkephalinase, and • (c) ^3H-Tyr-OH, generated from both (a) and (b) by aminopeptidase(s) in the supernatant and the subsequent procedure was carried out as described in method A) above.

## CC(C)C[C@H](NC(=O)C(CC(=O)O)Cc1ccccc1)C(=O)O (mixture of isomers) [compound 1, (2S)-2-[(2RS)-2-Benzyl-3-carboxypropanamido]-4-methylpentanoic acid]
[1]; 5 µg mouse i.c.v., 1h prior to acetic acid
  % inhibition of writhes: slight potentiation
[1]; 5 µg mouse i.c.v., 2h prior to acetic acid
  % inhibition of writhes: 36%
[1]; 10 µg mouse i.c.v., 1h prior to acetic acid
  % inhibition of writhes: 28%
[1]; 10 µg mouse i.c.v., 2h prior to acetic acid
  % inhibition of writhes: 48%
[1]; 20 µg mouse i.c.v., 1h prior to acetic acid
  % inhibition of writhes: 32%
[1]; 20 µg mouse i.c.v., 2h prior to acetic acid
  % inhibition of writhes: 44%
[1]; 40 µg mouse i.c.v., 1h prior to acetic acid
  % inhibition of writhes: 75%
[1]; 40 µg mouse i.c.v., 2h prior to acetic acid
  % inhibition of writhes: 84%
[2]
  IC50: 17 µM

## CC(C)C[C@H](NC(=O)C(CS)Cc1ccccc1)C(N)=O (mixture of isomers) [compound 9, (2S)-2-[(2RS)-2-Benzyl-3-mercaptopropanamido]-4-methylpentanamide]
[2]
  IC50: 0.33 µM

## CSCC[C@@H](NC(=O)C(CC(=O)O)Cc1ccccc1)C(=O)O (mixture of isomers) [compound 12, (2R)-2-[(2RS)-2-Benzyl-3-carboxypropanamido]-4-(methylthio)butanoic acid]
[2]
  IC50: 19 µM

## CSCC[C@H](NC(=O)C(CC(=O)O)Cc1ccccc1)C(=O)O (mixture of isomers) [compound 13, (2S)-2-[(2RS)-2-Benzyl-3-carboxypropanamido]-4-(methylthio)butanoic acid]
[2]
  IC50: 4.3 µM

## C[C@H](CS)C(=O)N1CCC[C@H]1C(=O)O [Captopril, 1-(D-3-mercapto-2-methylpropanoyl)-L-proline (R,S), reference compound]
[2]
  IC50: 3000 µM

## CC(C)C[C@H](NC(=O)[C@@H](CC(=O)O)Cc1ccccc1)C(=O)O [compound 2, (2S)-2-[(2R)-2-benzyl-3-carboxypropanamido]-4-methylpentanoic acid]
[3]
  IC50: 7.2 µM

## CC(C)C[C@H](NC(=O)[C@H](CC(=O)O)Cc1ccccc1)C(=O)O [compound 3, (2S)-2-[(2S)-2-benzyl-3-carboxypropanamido]-4-methylpentanoic acid]
[3]
  IC50: 4 µM

## CC(C)C[C@H](NC(=O)[C@@H](CC(=O)O)Cc1ccccc1)C(N)=O [compound 4, (2S)-2-[(2R)-2-Eenzyl-3-carboxypropanamido]-4-methylpentanamide]
[2]
  IC50: > 100 µM

## CC(C)C[C@@H](NC(=O)C(CC(=O)O)Cc1ccccc1)C(=O)O (stereo partly drawn) [compound 11, (2R)-2-[(2RS)-2-Benzyl-3-carboxypropanamido,]-4-methylpentanoic acid]
[2]
  IC50: > 500 µM

## CC(C)C[C@H](NC(=O)C(CC(=O)O)Cc1ccc([N+](=O)[O-])cc1)C(=O)O (stereo partly drawn) [compound 14]
[2]
  IC50: 65 µM

## CSCC[C@@H](NC(=O)C(CS)Cc1ccccc1)C(=O)O (stereo partly drawn) [compound 15, (2R)-2-[2RS-2-Benzyl-3-mercaptopropanamido]-4-(methylthio)-butanoic acid]
[2]
  IC50: 0.15 µM

## (2$)-2-[(2R)-2-Benzyl-3-carboxypropanamido]-4-methylpentanamide [compound 10]
[3]
  IC50: > 100 µM

## (2S)-2-[(2RS)-3-Acetylthio-2-benzylpropanamido]-4-methylpentanoic acid, dicyclohexylamine salt [compound 6]
[2]
  IC50: 11 µM

Source: patent publication EP0038046A2, “Pharmaceutical amides, and preparation, formulations and use thereof” (THE WELLCOME FOUNDATION LIMITED, priority 1980, dated 1981)
